# Laboratory results from ChEMBL document CHEMBL1201862, “PubChem BioAssay data set” (2004).
# The source made the active and inactive calls.
# Legend:
# [1] = biological target: T1, Cytochrome P450 1A2 (Homo sapiens, UniProt P05177);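 also: PubChem cytochrome P450 panel assay, CYP1A2 panel member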
# T1 sequence (P05177 whole entry): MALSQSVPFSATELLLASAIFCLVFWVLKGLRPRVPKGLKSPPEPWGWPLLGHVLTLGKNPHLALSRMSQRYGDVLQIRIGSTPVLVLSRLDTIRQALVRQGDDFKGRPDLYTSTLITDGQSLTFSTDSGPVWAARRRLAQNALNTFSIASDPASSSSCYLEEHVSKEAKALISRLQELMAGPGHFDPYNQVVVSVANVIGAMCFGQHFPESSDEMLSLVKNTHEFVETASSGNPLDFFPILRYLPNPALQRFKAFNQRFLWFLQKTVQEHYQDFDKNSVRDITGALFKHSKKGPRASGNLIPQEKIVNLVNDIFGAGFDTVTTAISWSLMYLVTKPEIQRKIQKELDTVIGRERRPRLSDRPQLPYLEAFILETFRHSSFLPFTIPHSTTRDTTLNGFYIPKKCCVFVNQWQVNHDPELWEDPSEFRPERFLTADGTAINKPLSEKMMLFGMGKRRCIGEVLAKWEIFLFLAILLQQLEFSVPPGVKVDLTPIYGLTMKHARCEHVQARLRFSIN
# [2] = biological target: Luciferin 4-monooxygenase (Photinus pyralis, UniProt P08659); assay: inhibition of purified Photinus pyralis luciferase – biochemical, luminescence, dose response (AID 1891)
# [3] = Luminescence Cell-Based Dose Confirmation HTS to Identify Inhibitors of Platelet Dense Granule Release. [Related pubchem assays: 1663 (Primary HTS), 1678 (Summary of Project)]; type: functional
# [4] = biological target: T2, Zinc finger protein mex-5 (Caenorhabditis elegans, UniProt Q9XUB2); assay: potency of MEX-5 RNA-binding blockers – biochemical, C. elegans, fluorescence polarization, dose response (AID 1960)
# T2 sequence (Q9XUB2 whole entry): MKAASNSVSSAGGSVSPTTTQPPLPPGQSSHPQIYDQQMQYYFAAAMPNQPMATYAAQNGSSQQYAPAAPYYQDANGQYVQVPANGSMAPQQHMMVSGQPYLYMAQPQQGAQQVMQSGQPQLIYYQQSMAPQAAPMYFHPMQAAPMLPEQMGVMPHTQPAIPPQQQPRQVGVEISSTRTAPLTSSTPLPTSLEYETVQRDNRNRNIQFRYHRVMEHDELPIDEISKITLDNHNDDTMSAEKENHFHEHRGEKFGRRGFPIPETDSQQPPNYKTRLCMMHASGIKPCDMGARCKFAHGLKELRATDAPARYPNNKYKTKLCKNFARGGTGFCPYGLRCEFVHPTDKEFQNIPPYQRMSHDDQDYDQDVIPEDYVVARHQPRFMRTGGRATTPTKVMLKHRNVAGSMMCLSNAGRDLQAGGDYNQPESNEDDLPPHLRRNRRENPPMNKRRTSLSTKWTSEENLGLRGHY
# [5] = biological target: T3, RNA-binding protein pos-1 (Caenorhabditis elegans, UniProt G5EF15); assay: disruptors of C. elegans POS-1 RNA interaction – biochemical, fluorescence polarization, dose response (AID 1964);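 also: purified POS-1 fused to maltose binding protein made in E. coli; potency of compounds blocking POS-1 binding to fluorescent RNA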
# T3 sequence (G5EF15 whole entry): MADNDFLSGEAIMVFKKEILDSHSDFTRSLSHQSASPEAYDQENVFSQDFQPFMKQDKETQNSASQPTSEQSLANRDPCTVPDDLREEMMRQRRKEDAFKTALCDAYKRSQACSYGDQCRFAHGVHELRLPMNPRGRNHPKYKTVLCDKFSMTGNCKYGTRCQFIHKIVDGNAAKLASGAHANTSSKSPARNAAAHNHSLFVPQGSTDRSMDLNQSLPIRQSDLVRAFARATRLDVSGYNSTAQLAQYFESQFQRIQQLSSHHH
# [6] = biological target: T4, Streptokinase A (Streptococcus pyogenes serotype M1, UniProt P10520); assay: viability-normalized secreted streptokinase activity reduction – plasminogen activation absorbance, OD405, dose response (AID 1914); type: functional, Streptococcus pyogenes M1 GAS;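 also: secreted streptokinase activity via plasminogen activation per viability signal from cell pellet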
# T4 sequence (P10520 whole entry): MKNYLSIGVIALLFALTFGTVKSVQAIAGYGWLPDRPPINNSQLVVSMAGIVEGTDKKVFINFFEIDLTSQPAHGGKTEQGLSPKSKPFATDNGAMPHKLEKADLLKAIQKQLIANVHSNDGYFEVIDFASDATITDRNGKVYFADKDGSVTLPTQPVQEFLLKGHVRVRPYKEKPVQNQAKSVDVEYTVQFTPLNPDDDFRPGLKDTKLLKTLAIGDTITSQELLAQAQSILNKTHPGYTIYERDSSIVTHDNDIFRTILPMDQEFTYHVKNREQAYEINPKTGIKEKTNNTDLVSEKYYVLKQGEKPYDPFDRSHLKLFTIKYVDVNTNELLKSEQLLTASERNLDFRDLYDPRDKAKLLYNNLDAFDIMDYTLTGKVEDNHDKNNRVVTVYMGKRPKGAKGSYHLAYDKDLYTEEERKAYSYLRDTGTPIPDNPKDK
# [7] = test system: Streptococcus; assay: GAS UMAA2166 growth inhibition – luminescence, BacTiterGlo, counter-screen for streptokinase expression inhibitor project, dose response (AID 1915); type: functional, organism-based;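 also: potency for reduction of bacterial viability or growth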
# [8] = test system: Streptococcus sp. 'group A'; assay: Streptococcus pyogenes SK(-)GAS viability under kanamycin – luminescence, BacTiterGlo, confirmation, counter-screen for streptokinase expression inhibitor project, dose response (AID 1900); type: functional, organism-based
# [9] = biological target: Cytochrome P450 2C19 (Homo sapiens, UniProt P33261); assay: Cytochrome panel assay with activity outcomes. Panel member name: p450-cyp2c19 Compounds with AC50 equal or less than 10 uM are considered active; type: functional
# [10] = biological target: Cytochrome P450 3A4 (Homo sapiens, UniProt P08684);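 also: CYP3A4 tested as one member of a cytochrome P450 panel screen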
# Sequence of Cytochrome P450 3A4 (P08684 whole entry): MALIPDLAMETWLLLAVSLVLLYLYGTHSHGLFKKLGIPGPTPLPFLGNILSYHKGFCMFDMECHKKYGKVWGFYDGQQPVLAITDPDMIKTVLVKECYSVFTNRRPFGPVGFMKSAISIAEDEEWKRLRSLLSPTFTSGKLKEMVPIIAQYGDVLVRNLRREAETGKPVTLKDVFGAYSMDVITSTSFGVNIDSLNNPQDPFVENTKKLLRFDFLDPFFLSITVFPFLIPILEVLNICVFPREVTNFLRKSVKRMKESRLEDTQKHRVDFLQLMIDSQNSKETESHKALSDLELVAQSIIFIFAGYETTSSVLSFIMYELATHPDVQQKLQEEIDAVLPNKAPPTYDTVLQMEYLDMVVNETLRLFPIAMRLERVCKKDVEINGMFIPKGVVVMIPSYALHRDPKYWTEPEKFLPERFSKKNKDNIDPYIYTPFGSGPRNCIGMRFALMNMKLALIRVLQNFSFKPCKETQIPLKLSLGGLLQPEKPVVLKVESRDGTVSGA
# Sequence of Luciferin 4-monooxygenase (P08659 whole entry): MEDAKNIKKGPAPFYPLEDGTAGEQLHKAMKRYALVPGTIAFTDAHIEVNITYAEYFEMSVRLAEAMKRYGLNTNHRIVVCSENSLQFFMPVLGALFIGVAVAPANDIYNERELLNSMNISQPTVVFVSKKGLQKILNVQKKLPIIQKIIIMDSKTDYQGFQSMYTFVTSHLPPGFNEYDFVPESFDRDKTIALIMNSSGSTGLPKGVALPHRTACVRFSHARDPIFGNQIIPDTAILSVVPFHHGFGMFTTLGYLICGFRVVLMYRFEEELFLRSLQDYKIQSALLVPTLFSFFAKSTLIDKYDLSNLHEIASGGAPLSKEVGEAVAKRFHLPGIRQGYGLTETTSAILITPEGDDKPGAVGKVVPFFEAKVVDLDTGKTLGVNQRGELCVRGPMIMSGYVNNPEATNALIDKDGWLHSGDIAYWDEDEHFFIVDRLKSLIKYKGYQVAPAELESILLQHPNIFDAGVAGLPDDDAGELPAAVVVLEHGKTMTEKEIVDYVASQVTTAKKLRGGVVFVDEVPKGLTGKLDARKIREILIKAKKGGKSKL
# Sequence of Cytochrome P450 2C19 (P33261 whole entry): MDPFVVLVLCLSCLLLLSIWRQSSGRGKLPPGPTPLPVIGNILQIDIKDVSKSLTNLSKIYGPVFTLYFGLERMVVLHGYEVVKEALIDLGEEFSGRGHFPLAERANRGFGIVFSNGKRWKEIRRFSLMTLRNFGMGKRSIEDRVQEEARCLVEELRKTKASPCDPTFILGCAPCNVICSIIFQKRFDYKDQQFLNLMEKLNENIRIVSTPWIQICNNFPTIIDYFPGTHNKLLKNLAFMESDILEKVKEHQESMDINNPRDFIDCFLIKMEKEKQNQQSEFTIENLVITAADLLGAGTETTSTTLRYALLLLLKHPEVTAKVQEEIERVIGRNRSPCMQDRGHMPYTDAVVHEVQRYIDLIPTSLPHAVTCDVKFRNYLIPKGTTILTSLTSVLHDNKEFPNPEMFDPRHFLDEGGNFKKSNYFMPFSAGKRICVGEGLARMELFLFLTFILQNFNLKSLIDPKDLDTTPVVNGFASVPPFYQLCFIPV
compound,measurement,setting,value
Cn1c(N)nc2c(nc(OCc3ccccc3)n2[C@@H]2O[C@H](CO)[C@@H](O)[C@@H]2O)c1=O,AC50,[1],0.00251 µM (inconclusive)
CCOC1OC2C(CO)OC(n3cnc4c(N)ncnc43)C2O1 (stereo unspecified),EC50,[2],> 112 µM (not active)
same,EC50,[3],6.37 µM (active)
Cc1noc(/C=C/N(C)C)c1S(=O)(=O)N1CCC(C(=O)O)CC1,EC50,[4],> 300 µM (not active)
same,EC50,[5],> 300 µM (not active)
CC1(OC(=O)c2ccc(Cl)nc2)C(=O)C=C2C=C(C3CC3)OC=C2C1=O (stereo unspecified),EC50,[4],14.3 µM (active)
same,EC50,[5],15.1 µM (active)
Cc1cc(Cl)c2oc(C(=O)N3CCC(O)(c4ccccc4)CC3)c(C)c2c1,EC50,[6],> 150 µM (not active)
same,EC50,[7],14.8 µM (active)
same,EC50,[8],5.13 µM (active)
COc1cc(C2NC(=O)NC(O)(C(F)(F)F)C2C(=O)c2ccc(Cl)cc2)ccc1O (stereo unspecified),AC50,[9]; read-out: AC50,11.2 µM (inconclusive)
same,AC50,[10],15.8 µM (inconclusive)
same,AC50,[1],39.8 µM (inconclusive)
COc1ccc(NC(=O)N2CC[C@@]3(CCCN(C(C)=O)C3)C2)cc1,AC50,[1],39.8 µM (inconclusive)
O=C(NNS(=O)(=O)c1ccccc1)c1cccnc1,EC50,[2],> 112 µM (not active)
same,AC50,[10],3.98 µM (inconclusive)
same,EC50,[3],> 112 µM (not active)
CC(C)c1ccc(NC(=O)NC(C)c2ccc3c(c2)OCO3)cc1 (stereo unspecified),EC50,[6],> 150 µM (not active)
same,EC50,[7],> 150 µM (not active)
same,EC50,[8],> 150 µM (not active)
CC(C)Oc1ccc(CNC(=O)c2ccc3c(c2)N(C)CCS3)cc1,EC50,[2],20.4 µM (active)
same,EC50,[3],> 112 µM (not active)
O=C(NC(c1ccccc1)c1ccccc1)c1ccc(O)nn1,EC50,[2],> 112 µM (not active)
same,EC50,[3],5.32 µM (active)
COc1ccccc1CC(=O)NNC(=O)CN(C)S(=O)(=O)c1ccc(Cl)cc1,EC50,[2],> 112 µM (not active)
same,EC50,[3],> 112 µM (not active)
CC(C)CCC(CCNCc1ccccn1)c1ccc(Cl)cc1 (stereo unspecified),EC50,[6],> 150 µM (not active)
same,EC50,[7],132 µM (active)
same,EC50,[8],7.65 µM (active)
Cc1ccc(Oc2nc3ccccn3c(=O)c2/C=C(\C#N)C(=O)NC2CCS(=O)(=O)C2)cc1 (stereo unspecified),EC50,[2],> 112 µM (not active)
same,EC50,[3],8.55 µM (active)
COC(=O)CCCC1=CC2=CC(=O)C(C)(O)C(=O)C2=CO1 (stereo unspecified),EC50,[4],29 µM (active)
same,EC50,[5],> 300 µM (not active)
C=CCNC(=S)Nc1cc(Cl)ccc1OC,EC50,[4],> 300 µM (not active)
same,EC50,[5],> 300 µM (not active)
CCc1ccc(-c2ccc3nnc(SCC(N)=O)n3n2)cc1,EC50,[6],> 150 µM (not active)
same,EC50,[7],18.6 µM (active)
same,EC50,[8],1.83 µM (active)
COC(=O)c1[nH]c2cccc(OC)c2c1NC(=O)CN1CCOCC1,EC50,[2],> 112 µM (not active)
same,EC50,[3],> 112 µM (not active)
CC1(c2ccccc2)NC(=O)N(CC(=O)N2CCN(S(=O)(=O)c3ccccc3[N+](=O)[O-])CC2)C1=O (stereo unspecified),EC50,[2],> 112 µM (not active)
same,EC50,[3],> 112 µM (not active)
CS(=O)(=O)Nc1ccc(C2=NN(C(=O)C3CCCCC3)C(c3cccs3)C2)cc1 (stereo unspecified),EC50,[6],> 150 µM (not active)
same,EC50,[7],6.38 µM (active)
same,EC50,[8],4.11 µM (active)
Nc1c(NC=O)c(=O)n(Cc2ccccc2)c(=O)n1Cc1ccccc1,EC50,[2],> 112 µM (not active)
same,EC50,[3],> 112 µM (not active)
Cc1ccc(Cn2c(=N)c(C(=O)NCC3CCCO3)cc3c(=O)n4ccccc4nc32)cc1 (stereo unspecified),EC50,[4],> 300 µM (not active)
same,EC50,[5],> 300 µM (not active)
CC(=O)c1ccc(NC(S)=NC(C)CCc2ccccc2)cc1 (stereo unspecified),EC50,[2],> 112 µM (not active)
same,EC50,[3],> 112 µM (not active)
O=c1c(-c2ccc(Cl)cc2)[n+]([O-])c2ccccc2n1OCc1ccccn1,AC50,[9]; read-out: AC50,2.82 µM (inconclusive)
same,AC50,[10],7.08 µM (inconclusive)
same,AC50,[1],1.26 µM (inconclusive)
CCOC(=O)c1c(NC(=S)N2CCN(C)CC2)sc(C)c1-c1ccccc1,EC50,[6],22.4 µM (active)
O=C1Nc2cc(C(=O)N3CCN(c4ccccn4)CC3)ccc2S/C1=C\c1ccccc1,EC50,[6],> 150 µM (not active)
same,EC50,[7],18.2 µM (active)
same,EC50,[8],3.55 µM (active)
Cc1nn(-c2ccccc2)c(N2CCCC2)c1/C=C1\N=C(c2ccc(F)cc2)OC1=O,EC50,[4],56.7 µM (active)
same,EC50,[5],> 300 µM (inconclusive)
COc1ccc(NC(=O)CN2CCN(CC(=O)Nc3ccccc3Cl)CC2)cc1,AC50,[1],25.1 µM (inconclusive)
CCCCc1nc(NCc2ccccc2)c(C#N)c2c1CCCC2,EC50,[6],2.96 µM (active)
same,EC50,[7],19.1 µM (active)
same,EC50,[8],9.14 µM (active)
CCn1cc(C(=O)NCc2ccccn2)c(=O)c2cc(S(=O)(=O)N3CCCCC3)ccc21,EC50,[4],102 µM (active)
same,EC50,[5],154 µM (active)
C=C(C)CC1(NC(C)c2ccccc2)CCCCC1 (stereo unspecified),EC50,[2],> 112 µM (not active)
same,EC50,[3],> 112 µM (not active)
CCN(CC)C(=O)CSc1nnc(-c2ccco2)n1N,AC50,[1],17.8 µM (inconclusive)
CC1=NN(C(N)=S)C(=O)C1N=Nc1c(Cl)cc([N+](=O)[O-])cc1Cl (stereo unspecified),EC50,[4],85.9 µM (active)
same,EC50,[5],> 300 µM (not active)
CSc1nnc(N2C(=O)C(O)=C(C(=O)c3ccco3)C2c2ccccc2)s1 (stereo unspecified),EC50,[4],76.6 µM (active)
same,EC50,[5],> 300 µM (inconclusive)
CCOc1ccc(N2C(=O)CC(Sc3nc4ccc(OCC)cc4s3)C2=O)cc1 (stereo unspecified),EC50,[2],> 112 µM (not active)
same,EC50,[3],> 112 µM (not active)
COc1ccc(N2CCN(CCNC(=O)c3c(C)cc(=O)oc3C)CC2)cc1,AC50,[10],14.1 µM (inconclusive)
same,AC50,[1],25.1 µM (inconclusive)
COc1ccc(C2C(C#N)=C(N)OC3=C2C(=O)CCC3)cc1OC (stereo unspecified),EC50,[4],> 300 µM (not active)
same,EC50,[5],> 300 µM (not active)
O=C(Nc1ccccc1)N1CC[C@@]2(CCCN(C(=O)c3cc(C(F)(F)F)cc(C(F)(F)F)c3)C2)C1,AC50,[9],inconclusive
same,AC50,[10],12.6 µM (inconclusive)
same,AC50,[1],25.1 µM (inconclusive)
C1=C(c2ccccc2)Nc2nnnn2C1c1cccs1 (stereo unspecified),EC50,[4],> 300 µM (not active)
same,EC50,[5],> 300 µM (not active)
O=C(Cn1nc(C(=O)O)c2ccccc2c1=O)NCC1CCCO1 (stereo unspecified),EC50,[2],> 112 µM (not active)
same,EC50,[3],> 112 µM (not active)
O=C(c1nc2ccc([N+](=O)[O-])cc2nc1O)[C@@H](O)c1ccc2c(c1)OCO2,AC50,[1],3.16 µM (inconclusive)
COC(=O)c1ccc(-n2c(C)cc(/C=N/n3cnnc3)c2C)cc1,EC50,[4],> 300 µM (not active)
same,EC50,[5],> 300 µM (not active)
COc1cc(C[C@H]2C(=O)OC[C@@H]2Cc2ccc(OC)c(OC)c2)ccc1O [ARCTIGENIN],AC50,[9]; read-out: AC50,0.00251 µM (inconclusive)
same,AC50,[1],31.6 µM (inconclusive)
